This passage reports pest or weed control results from patent US20110086759A1, “CHEMICAL COMPOUNDS” (SYNGENTA CROP PROTECTION, INC., priority 2007, published 2011).

Common to all, as to type: in vivo
Test [1] relates to Ipomea hederaceae (IPOHE). The test is described as follows: Post-emergence biological efficacy, glasshouse pot test. The settings on record: Ipomoea hederacea, 312 h; Rate 1,000 g/ha; post-emergence spray; evaluated after 13 days (100=total damage to plant; 0=no damage to plant); read-out: Percentage damage caused to weed species, post-emergence, IPOHE. The gist of the method: (§1)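 Pot-grown weeds were sprayed 8 days after sowing with test compound in acetone/water (50:50) with 0.5% Tween 20 at 1000 or 250 g/ha. Glasshouse at 24/16° C day/night, 14 h light, 65% humidity. Damage scored 0-100 (100 = total damage) after 13 days.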

In test [2] the test system is Solanum nigrum (SOLNI). The description is as above. The settings on record: 312 h, Rate 1,000 g/ha, post-emergence spray, evaluated after 13 days (100=total damage to plant; 0=no damage to plant), read-out: Percentage damage caused to weed species, post-emergence, SOLNI. The essentials: as §1
Test [3] relates to Setaria faberi (SETFA). Described as above. Particulars: 312 h, Rate 1,000 g/ha, post-emergence spray, evaluated after 13 days (100=total damage to plant; 0=no damage to plant), read-out: Percentage damage caused to weed species, post-emergence, SETFA. The essentials: as §1
For test [4], the system named is Alopecurus myosuroides (ALOMY). The test is described as above. Particulars: 312 h, Rate 1,000 g/ha, post-emergence spray, evaluated after 13 days (100=total damage to plant; 0=no damage to plant), read-out: Percentage damage caused to weed species, post-emergence, ALOMY. The essentials: as §1
Test [5] has as its system Echinochloa crus-galli (ECHCG). Described as above. Particulars: 312 h, Rate 1,000 g/ha, post-emergence spray, evaluated after 13 days (100=total damage to plant; 0=no damage to plant), read-out: Percentage damage caused to weed species, post-emergence, ECHCG. The gist of the method: as §1
Test [6] relates to Amaranthus retoflexus (AMARE). Described as above. Particulars: Amaranthus retroflexus, 312 h; Rate 1,000 g/ha; post-emergence spray; evaluated after 13 days (100=total damage to plant; 0=no damage to plant); read-out: Percentage damage caused to weed species, post-emergence, AMARE. The gist of the method:
as §1

Test [7] relates to Ipomea hederaceae (IPOHE). The test is described as follows: Pre-emergence biological efficacy, glasshouse pot test. Particulars: Ipomoea hederacea, 312 h; pre-emergence, rate 1,000 g/ha, evaluated after 13 days (100=total damage to plant; 0=no damage); read-out: Percentage damage caused to weed species, IPOHE. The gist of the method:
(§2)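 One day after sowing in standard soil, pots were sprayed with compound in acetone/water (50:50) with 0.5% Tween 20, at 1000 or 250 g/ha. Plants grew at 24/16° C day/night, 14 h light, 65% humidity. Damage was scored after 13 days (0 = none, 100 = total).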

Test [8] concerns Solanum nigrum (SOLNI). Described as above. Particulars: 312 h, pre-emergence, rate 1,000 g/ha, evaluated after 13 days (100=total damage to plant; 0=no damage), read-out: Percentage damage caused to weed species, SOLNI. The essentials:
as §2

Test [9] relates to Setaria faberi (SETFA). The test is described as above. The settings on record: 312 h, pre-emergence, rate 1,000 g/ha, evaluated after 13 days (100=total damage to plant; 0=no damage), read-out: Percentage damage caused to weed species, SETFA. The essentials:
as §2

Test [10] concerns Alopecurus myosuroides (ALOMY). The test is described as above. The settings on record: 312 h, pre-emergence, rate 1,000 g/ha, evaluated after 13 days (100=total damage to plant; 0=no damage), read-out: Percentage damage caused to weed species, ALOMY. The gist of the method: as §2
Test [11] relates to Echinochloa crus-galli (ECHCG). Described as above. The settings on record: 312 h, pre-emergence, rate 1,000 g/ha, evaluated after 13 days (100=total damage to plant; 0=no damage), read-out: Percentage damage caused to weed species, ECHCG. The gist of the method: as §2
Test [12] concerns Amaranthus retoflexus (AMARE). The description is as above. The settings on record: Amaranthus retroflexus, 312 h; pre-emergence, rate 1,000 g/ha, evaluated after 13 days (100=total damage to plant; 0=no damage); read-out: Percentage damage caused to weed species, AMARE. The essentials: as §2

Take `COC(=O)c1nc(-c2ccc(Cl)cc2C)nc(NCc2ccco2)c1Cl` [Compound 213-48, 5-Chloro-2-(4-chloro-2-methylphenyl)-4-(furan-2-yl-methyl-amino)-6-methoxy-carbonylpyrimidine]: the pest or weed control at 1000 g/ha in test [1] was 0%; in the test with Solanum nigrum (SOLNI) [2], 10%; in the test with Setaria faberi (SETFA) [3] it was 10%; in test [4], 0%; in [5], 0%; in test [6] it was 100%. The pest or weed control at 1000 g/ha in test [7] stood at 0%; in the test with Solanum nigrum (SOLNI) [8], 0%; in the test on Setaria faberi (SETFA) [9], 10%; in [10], 10%; in [11], 0%; in test [12], 70%.
`COC(=O)c1nc(-c2ccc(Cl)cc2OC)nc(NCc2ccco2)c1Cl` [Compound 214-48, 5-Chloro-2-(4-chloro-2-methoxyphenyl)-4-(furan-2-yl-methyl-amino)-6-methoxy-carbonylpyrimidine]: the pest or weed control at 1000 g/ha in test [1] came out at 30%; with Solanum nigrum (SOLNI) [2] it was 70%; in the test on Setaria faberi (SETFA) [3], 10%; in test [4], 30%; in test [5], 0%; in test [6], 100%. In addition, the pest or weed control at 1000 g/ha in test [7] was found to be 0%; with Solanum nigrum (SOLNI) [8], 20%; in the test on Setaria faberi (SETFA) [9] it was 10%; in test [10] it was 20%; in [11], 0%; in [12], 100%.
Consider `COC(=O)c1nc(-c2ccc(Cl)c(C)c2)nc(NCc2ccco2)c1Cl` [Compound 216-48, 5-Chloro-2-(4-chloro-3-methylphenyl)-4-(furan-2-ylmethyl-amino)-6-methoxy-carbonylpyrimidine], for which the pest or weed control at 1000 g/ha is 30% in [1]; 60% with Solanum nigrum (SOLNI) [2]; 10% with Setaria faberi (SETFA) [3]; 10% in test [4]; 30% in test [5]; 100% in test [6]. Moreover, the pest or weed control at 1000 g/ha was 0% in test [7]; 30% with Solanum nigrum (SOLNI) [8]; 30% in the test with Setaria faberi (SETFA) [9]; 0% in test [10]; 30% in test [11]; 30% in [12].
With `COC(=O)c1nc(-c2ccc(Cl)c(C(F)(F)F)c2)nc(NCc2ccco2)c1Cl` [Compound 217-48, 5-Chloro-2-(4-chloro-3-trifluoromethyl-phenyl)-4-(furan-2-ylmethylamino)-6-methoxycarbonyl-pyrimidine], the pest or weed control at 1000 g/ha in [1] is 30%; with Solanum nigrum (SOLNI) [2] it was 70%; in the test on Setaria faberi (SETFA) [3] it was 20%; in test [4], 10%; in test [5], 0%; in test [6] it was 80%. Besides, the pest or weed control at 1000 g/ha stood at 0% in [7]; 50% in the test on Solanum nigrum (SOLNI) [8]; 20% in the test with Setaria faberi (SETFA) [9]; 20% in test [10]; 0% in test [11]; 20% in [12].
As to `COC(=O)c1nc(-c2ccc(Cl)cc2F)nc(NCc2ccco2)c1Cl` [Compound 218-48, 5-Chloro-2-(4-chloro-2-fluorophenyl)-4-(furan-2-yl-methyl-amino)-6-methoxy-carbonylpyrimidine], the pest or weed control at 1000 g/ha was 90% in [1]; 90% in the test on Solanum nigrum (SOLNI) [2]; 80% with Setaria faberi (SETFA) [3]; 60% in test [4]; 60% in [5]; 100% in [6]. The pest or weed control at 1000 g/ha came to 50% in test [7]; 90% in the test on Solanum nigrum (SOLNI) [8]; 70% in the test with Setaria faberi (SETFA) [9]; 70% in [10]; 50% in test [11]; 100% in test [12].
With `COC(=O)c1nc(-c2ccc(Cl)c([N+](=O)[O-])c2)nc(NCc2ccco2)c1Cl` [Compound 219-48, 5-Chloro-2-(4-chloro-3-nitrophenyl)-4-(furan-2-yl-methyl-amino)-6-methoxycarbonyl-pyrimidine], the pest or weed control at 1000 g/ha in test [1] amounted to 0%; with Solanum nigrum (SOLNI) [2] it was 30%; with Setaria faberi (SETFA) [3], 20%; in test [4], 0%; in [5], 0%; in test [6], 20%. Moreover, the pest or weed control at 1000 g/ha in test [7] is 0%; in the test with Solanum nigrum (SOLNI) [8] it was 0%; with Setaria faberi (SETFA) [9], 0%; in [10], 0%; in test [11] it was 0%; in test [12] it was 20%.
For `COC(=O)c1nc(-c2ccc(Cl)cc2C(F)(F)F)nc(NCc2ccco2)c1Cl` [Compound 220-48, 5-Chloro-2-(4-chloro-2-trifluoromethyl-phenyl)-4-(furan-2-ylmethylamino)-6-methoxycarbonyl-pyrimidine], the pest or weed control at 1000 g/ha in test [1] stood at 10%; in the test on Solanum nigrum (SOLNI) [2], 20%; in the test on Setaria faberi (SETFA) [3], 0%; in test [4], 20%; in test [5], 0%; in test [6] it was 40%. Besides, the pest or weed control at 1000 g/ha in test [7] was 0%; with Solanum nigrum (SOLNI) [8] it was 0%; with Setaria faberi (SETFA) [9], 0%; in test [10], 0%; in [11], 0%; in test [12], 20%.
As for `COC(=O)c1nc(-c2ccc(Cl)c(C#N)c2)nc(NCc2ccco2)c1Cl` [Compound 221-48, 5-Chloro-2-(4-chloro-3-cyanophenyl)-4-(furan-2-yl-methyl-amino)-6-methoxy-carbonylpyrimidine], the pest or weed control at 1000 g/ha in test [1] came out at 40%; in the test with Solanum nigrum (SOLNI) [2], 80%; with Setaria faberi (SETFA) [3], 30%; in test [4] it was 10%; in test [5], 30%; in [6], 80%. Besides, the pest or weed control at 1000 g/ha in test [7] amounted to 0%; in the test on Solanum nigrum (SOLNI) [8], 0%; in the test with Setaria faberi (SETFA) [9], 0%; in test [10], 0%; in [11], 0%; in test [12], 60%.
